Data from patent US20240109930A1, “TRIAZOLYL-METHYL SUBSTITUTED ALPHA-D-GALACTOPYRANOSIDE DERIVATIVES” (Idorsia Pharmaceuticals Ltd, priority 2021, published 2024).

Key:
[1] = target: human Gal-3 (hGal-3) (Homo sapiens (Human), UniProt P17931); test: Competitive binding assay: biotinylated hGal-3 binding to microplate-adsorbed asialofetuin (ASF); conditions: IC50 values from several measurements given as geomean
Protocol: (§1) The inhibitory activity of compounds is determined in competitive binding assays. This spectrophotometric assay measures the binding of biotinylated human Gal-3 (hGal-3) or human Gal-1 (hGal-1), respectively, to a microplate-adsorbed glycoprotein, asialofetuin (ASF) (Proc Natl Acad Sci USA. 2013 Mar. 26; 110(13):5052-7.). Alternatively, and preferably, a human Gal-1 version in which all six cysteines are substituted by serines may be used.
(§2) Briefly, compounds are serially diluted in DMSO (working dilutions). ASF-coated 384well plates are supplemented with 22.8 μL/well of biotinylated hGal-3 or hGal-1 in assay buffer (i.e. 300-1000 ng/mL biotinylated hGal-3 or hGal-1) to which 1.2 μL of compound working dilutions are added and mixed.
(§3) Plates are incubated for 3 hours at 4° C., then washed with cold assay buffer (3×50 uL), incubated for 1 hour with 25 μL/well of a streptavidin-peroxidase solution (diluted in assay buffer to 80 ng/mL) at 4° C., followed by further washing steps with assay buffer (3×50 uL). Finally, 25 μL/well of ABTS substrate is added.
(§4) The calculated IC50 values may fluctuate depending on the daily assay performance. Fluctuations of this kind are known to those skilled in the art. IC50 values from several measurements are given as geomean values.

[2] = target: human Gal-1 (hGal-1) (Homo sapiens, UniProt P09382, C131S/C17S/C43S/C61S/C89S); test: Competitive binding assay: biotinylated hGal-1 binding to microplate-adsorbed asialofetuin (ASF); conditions: IC50 values from several measurements given as geomean
Protocol: as §1, §2, §3, §4

Sequence of human Gal-3 (hGal-3) (P17931 whole entry): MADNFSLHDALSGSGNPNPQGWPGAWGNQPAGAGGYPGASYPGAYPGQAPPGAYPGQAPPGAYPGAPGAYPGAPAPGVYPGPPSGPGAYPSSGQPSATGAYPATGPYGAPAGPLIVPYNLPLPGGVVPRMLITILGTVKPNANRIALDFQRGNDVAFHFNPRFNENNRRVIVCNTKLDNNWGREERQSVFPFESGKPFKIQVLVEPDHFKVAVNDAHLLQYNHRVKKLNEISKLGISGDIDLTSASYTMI

| SMILES | IC50 [1] [nM] | IC50 [2] [nM] |
| --- | --- | --- |
| CO[C@@H]1[C@@H](n2cc(-c3ccc(F)c(F)c3F)nn2)[C@@H](O)[C@@H](CO)O[C@@H]1Cc1cn([C@@H]2CCOC[C@H]2F)nn1 (single isomer, unassigned) [Example 3.1.66.C, (2R,3R,4S,5R,6R)-6-((1-((3S*,4R*)-3-fluorotetrahydro-2H-pyran-4-yl)-1H-1,2,3-triazol-4-yl)methyl)-2-(hydroxymethyl)-5-methoxy-4-(4-(2,3,4-trifluorophenyl)-1H-1,2,3-triazol-1-yl)tetrahydro-2H-pyran-3-ol] | 40 | 270 |
| CO[C@@H]1[C@@H](n2cc(-c3ccc(F)c(F)c3F)nn2)[C@@H](O)[C@@H](CO)O[C@@H]1Cc1cn([C@@H]2CCOC[C@H]2F)nn1 (single isomer, unassigned) [Example 3.1.66.D, (2R,3R,4S,5R,6R)-6-((1-((3S*,4R*)-3-fluorotetrahydro-2H-pyran-4-yl)-1H-1,2,3-triazol-4-yl)methyl)-2-(hydroxymethyl)-5-methoxy-4-(4-(2,3,4-trifluorophenyl)-1H-1,2,3-triazol-1-yl)tetrahydro-2H-pyran-3-ol] | 20 | 310 |
| CO[C@@H]1[C@@H](n2cc(-c3ccc(C)c(F)c3F)nn2)[C@@H](O)[C@@H](CO)O[C@@H]1Cc1cn([C@@H]2COCC[C@H]2O)nn1 [Ex 1.1.1.] | 50 | 2610 |
| CO[C@@H]1[C@@H](n2cc(-c3ccc(C)c(F)c3F)nn2)[C@@H](O)[C@@H](CO)O[C@@H]1Cc1cn([C@@H]2CCC[C@H]2O)nn1 [Ex 1.1.2.] | 40 | 6460 |
| CO[C@@H]1[C@@H](n2cc(-c3ccc(C)c(F)c3F)nn2)[C@@H](O)[C@@H](CO)O[C@@H]1Cc1cn([C@H]2CCC[C@@H]2O)nn1 [Ex 1.1.3.] | 40 | 3150 |
| CO[C@@H]1[C@@H](n2cc(-c3ccc(C)c(F)c3F)nn2)[C@@H](O)[C@@H](CO)O[C@@H]1Cc1cn(C2(CO)CC2)nn1 [Ex 1.1.4.] | 40 | 2570 |
| CO[C@@H]1[C@@H](n2cc(-c3ccc(C)c(F)c3F)nn2)[C@@H](O)[C@@H](CO)O[C@@H]1Cc1cn(C2(CO)CCCC2)nn1 [Ex 1.1.5.] | 50 | 2570 |
| CO[C@@H]1[C@@H](n2cc(-c3ccc(C)c(F)c3F)nn2)[C@@H](O)[C@@H](CO)O[C@@H]1Cc1cn(C2(C)COC2)nn1 [Ex 1.1.6.] | 40 | 2210 |
| COCC1(n2cc(C[C@H]3O[C@H](CO)[C@H](O)[C@H](n4cc(-c5ccc(C)c(F)c5F)nn4)[C@H]3OC)nn2)CC1 [Ex 1.1.7.] | 60 | 5100 |
| CO[C@@H]1[C@@H](n2cc(-c3ccc(C)c(F)c3F)nn2)[C@@H](O)[C@@H](CO)O[C@@H]1Cc1cn(C23CCC(O)(CC2)CC3)nn1 [Ex 1.1.8.] | 50 | 4010 |
| CO[C@@H]1[C@@H](n2cc(-c3ccc(C)c(F)c3F)nn2)[C@@H](O)[C@@H](CO)O[C@@H]1Cc1cn(C(C)(C)CO)nn1 [Ex 1.1.9.] | 70 | 44000 |
| CO[C@@H]1[C@@H](n2cc(-c3ccc(C)c(F)c3F)nn2)[C@@H](O)[C@@H](CO)O[C@@H]1Cc1cn(C2(CO)CCC2)nn1 [Ex 1.1.11.] | 40 | 2090 |
| CO[C@@H]1[C@@H](n2cc(-c3ccc(C)c(F)c3F)nn2)[C@@H](O)[C@@H](CO)O[C@@H]1Cc1cn(C23CC(C2)C3)nn1 [Ex 1.1.12.] | 50 | 4150 |
| CO[C@@H]1[C@@H](n2cc(-c3ccc(C)c(F)c3F)nn2)[C@@H](O)[C@@H](CO)O[C@@H]1Cc1cn(C2(C)CCC2)nn1 [Ex 1.1.13.] | 30 | 1450 |
| CO[C@@H]1[C@@H](n2cc(-c3ccc(C)c(F)c3F)nn2)[C@@H](O)[C@@H](CO)O[C@@H]1Cc1cn(C23CC(C)(C2)C3)nn1 [Ex 1.1.14.] | 40 | 2610 |
| CO[C@@H]1[C@@H](n2cc(-c3ccc(C)c(F)c3F)nn2)[C@@H](O)[C@@H](CO)O[C@@H]1Cc1cn(C2(C)CC(F)(F)C2)nn1 [Ex 1.1.15.] | 30 | 1760 |
| CO[C@@H]1[C@@H](n2cc(-c3ccc(C)c(F)c3F)nn2)[C@@H](O)[C@@H](CO)O[C@@H]1Cc1cn(C2CC3(COC3)C2)nn1 [Ex 1.1.16.] | 50 | 3690 |
| CO[C@@H]1[C@@H](n2cc(-c3ccc(C)c(F)c3F)nn2)[C@@H](O)[C@@H](CO)O[C@@H]1Cc1cn(C2CC2C(C)C)nn1 (stereo partly shown) [Ex 1.1.17.] | 110 | 5000 |
| CO[C@@H]1[C@@H](n2cc(-c3ccc(C)c(F)c3F)nn2)[C@@H](O)[C@@H](CO)O[C@@H]1Cc1cn(C2(CO)CC(F)(F)C2)nn1 [Ex 1.1.18.] | 50 | 1470 |

| SMILES | IC50 [1] [nM] | IC50 [2] [nM] |
| --- | --- | --- |
| CO[C@@H]1[C@@H](n2cc(-c3ccc(C)c(F)c3F)nn2)[C@@H](O)[C@@H](CO)O[C@@H]1Cc1cn([C@]2(C)C[C@H](O)C2)nn1 [Ex 1.1.19.] | 20 | 670 |
| CO[C@@H]1[C@@H](n2cc(-c3ccc(C)c(F)c3F)nn2)[C@@H](O)[C@@H](CO)O[C@@H]1Cc1cn(C2[C@H]3CCC[C@@H]23)nn1 (stereo partly shown) [Ex 1.1.20.] | 50 | 3440 |
| COCC1(n2cc(C[C@H]3O[C@H](CO)[C@H](O)[C@H](n4cc(-c5ccc(C)c(F)c5F)nn4)[C@H]3OC)nn2)COC1 [Ex 1.1.21.] | 40 | 840 |
| CO[C@@H]1[C@@H](n2cc(-c3ccc(C)c(F)c3F)nn2)[C@@H](O)[C@@H](CO)O[C@@H]1Cc1cn(C2(CCO)COC2)nn1 [Ex 1.1.22.] | 40 | 690 |
| CO[C@@H]1[C@@H](n2cc(-c3ccc(C)c(F)c3F)nn2)[C@@H](O)[C@@H](CO)O[C@@H]1Cc1cn(C2(C)CC2)nn1 [Ex 1.1.23.] | 20 | 1060 |
| CO[C@@H]1[C@@H](n2cc(-c3ccc(C)c(F)c3F)nn2)[C@@H](O)[C@@H](CO)O[C@@H]1Cc1cn(C23CC(C(F)(F)F)(C2)C3)nn1 [Ex 1.1.24.] | 80 | 5040 |
| CO[C@@H]1[C@@H](n2cc(-c3ccc(C)c(F)c3F)nn2)[C@@H](O)[C@@H](CO)O[C@@H]1Cc1cn(C23CC(F)(C2)C3)nn1 [Ex 1.1.25.] | 40 | 3950 |
| CO[C@@H]1[C@@H](n2cc(-c3ccc(C)c(F)c3F)nn2)[C@@H](O)[C@@H](CO)O[C@@H]1Cc1cn(C2CC3(CC3)C2)nn1 [Ex 1.1.26.] | 60 | 17100 |
| CO[C@@H]1[C@@H](n2cc(-c3ccc(C)c(F)c3F)nn2)[C@@H](O)[C@@H](CO)O[C@@H]1Cc1cn([C@]2(C)C[C@@H](O)C2)nn1 [Ex 1.1.27.] | 30 | 1410 |
| CO[C@@H]1[C@@H](n2cc(-c3ccc(C)c(F)c3F)nn2)[C@@H](O)[C@@H](CO)O[C@@H]1Cc1cn(C2(C(F)F)COC2)nn1 [Ex 1.1.53., (2R,3R,4S,5R,6R)-4-(4-(2,3-difluoro-4-methylphenyl)-1H-1,2,3-triazol-1-yl)-6-((1-(3-(difluoromethyl)oxetan-3-yl)-1H-1,2,3-triazol-4-yl)methyl)-2-(hydroxymethyl)-5-methoxytetrahydro-2H-pyran-3-ol] | 20 | 520 |
| CO[C@@H]1[C@@H](n2cc(-c3ccc(C)c(F)c3F)nn2)[C@@H](O)[C@@H](CO)O[C@@H]1Cc1cn(C2(C(F)(F)F)COC2)nn1 [Ex 1.1.58.] | 30 | 800 |
| CO[C@@H]1[C@@H](n2cc(-c3ccc(C)c(F)c3F)nn2)[C@@H](O)[C@@H](CO)O[C@@H]1Cn1cc(C2(CO)CC2)nn1 [Ex 1.2.4.] | 40 | 2460 |
| CO[C@@H]1[C@@H](n2cc(-c3ccc(C)c(F)c3F)nn2)[C@@H](O)[C@@H](CO)O[C@@H]1Cn1cc(C2(C)COC2)nn1 [Ex 1.2.6.] | 40 | 2970 |
| CO[C@@H]1[C@@H](n2cc(-c3ccc(C)c(F)c3F)nn2)[C@@H](O)[C@@H](CO)O[C@@H]1Cn1cc(C2(O)CCC2)nn1 [Ex 1.2.31.] | 60 | 3760 |
| CO[C@@H]1[C@@H](n2cc(-c3ccc(C)c(F)c3F)nn2)[C@@H](O)[C@@H](CO)O[C@@H]1Cn1cc(C2CCCC2)nn1 [Ex 1.2.32.] | 60 | 5130 |
| CO[C@@H]1[C@@H](n2cc(-c3ccc(C)c(F)c3F)nn2)[C@@H](O)[C@@H](CO)O[C@@H]1Cn1cc(C2(O)CCCC2)nn1 [Ex 1.2.33.] | 110 | 5700 |
| CO[C@@H]1[C@@H](n2cc(-c3ccc(C)c(F)c3F)nn2)[C@@H](O)[C@@H](CO)O[C@@H]1Cn1cc(C(C)(C)O)nn1 [Ex 1.2.34., (2R,3R,4S,5R,6R)-4-(4-(2,3-Difluoro-4-methylphenyl)-1H-1,2,3-triazol-1-yl)-2-(hydroxymethyl)-6-((4-(2-hydroxypropan-2-yl)-1H-1,2,3-triazol-1-yl)methyl)-5-methoxytetrahydro-2H-pyran-3-ol] | 80 | 5330 |
| CO[C@@H]1[C@@H](n2cc(-c3ccc(C)c(F)c3F)nn2)[C@@H](O)[C@@H](CO)O[C@@H]1Cn1cc(C2(O)CCOCC2)nn1 [Ex 1.2.35.] | 70 | 4500 |
| CO[C@@H]1[C@@H](n2cc(-c3ccc(C)c(F)c3F)nn2)[C@@H](O)[C@@H](CO)O[C@@H]1Cn1cc(C2(O)CC2)nn1 [Ex 1.2.36.] | 80 | 7710 |
